Results reported in ChEMBL document CHEMBL5726062, “Substituted oxopyridine derivatives” (2019).

Biological target: Coagulation factor XI (Homo sapiens, UniProt P03951)
Experiment: Measurement of FXIa Inhibition: The factor XIa inhibition of the substances according to the invention is determined using a biochemical test system which utilizes the reaction of a peptidic factor XIa substrate to determine the enzymatic activity of human factor XIa. Here, factor XIa cleaves from the peptic factor XIa substrate the C-terminal aminomethylcoumarin (AMC), the fluorescence of which is measured. The determinations are carried out in microtitre plates.Test substances are dissolved in dimethyl sulphoxide and serially diluted in dimethyl sulphoxide (3000 μM to 0.0078 μM; resulting final concentrations in the test: 50 μM to 0.00013 μM). 1 μl of the diluted substance solutions is placed into each of the wells of white microtitre plates from Greiner (384 wells). 20 μl of assay buffer (50 mM of Tris/HCl pH 7.4; 100 mM of sodium chloride; 5 mM of calcium chloride; 0.1% of bovine serum albumin) and 20 μl of factor XIa from Kordia (0.45 nM in assay buffer) are then added successively. After […] of incubation, the enzyme reaction is started by addition of 20 μl of the factor XIa substrate Boc-Glu(OBzl)-Ala-Arg-AMC dissolved in assay buffer (10 μM in assay buffer) from Bachem, the mixture is incubated at room temperature (22° C.) for 30 min and fluorescence is then measured (excitation: 360 nm, emission: 460 nm). […]

Sequence of Coagulation factor XI (P03951 19-387 limits assumed): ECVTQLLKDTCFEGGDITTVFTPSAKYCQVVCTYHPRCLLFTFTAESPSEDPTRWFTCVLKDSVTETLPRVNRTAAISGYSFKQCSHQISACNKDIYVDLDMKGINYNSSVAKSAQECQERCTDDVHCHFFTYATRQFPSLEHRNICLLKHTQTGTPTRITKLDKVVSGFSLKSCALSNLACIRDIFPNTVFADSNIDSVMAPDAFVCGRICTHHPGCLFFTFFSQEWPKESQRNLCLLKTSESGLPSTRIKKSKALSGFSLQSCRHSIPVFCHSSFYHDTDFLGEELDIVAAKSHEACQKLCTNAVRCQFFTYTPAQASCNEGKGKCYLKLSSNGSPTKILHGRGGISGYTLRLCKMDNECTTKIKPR
Sequence of Coagulation factor XI (P03951 388-625 limits assumed): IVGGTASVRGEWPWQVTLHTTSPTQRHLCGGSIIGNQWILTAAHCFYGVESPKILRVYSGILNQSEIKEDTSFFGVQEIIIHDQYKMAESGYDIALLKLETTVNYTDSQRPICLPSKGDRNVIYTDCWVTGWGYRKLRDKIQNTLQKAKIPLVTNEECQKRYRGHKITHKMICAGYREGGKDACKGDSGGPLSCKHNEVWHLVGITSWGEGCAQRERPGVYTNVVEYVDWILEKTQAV

IC50: 12 nM
Compound: CNC(=O)c1ccc(NC(=O)C(Cc2cnco2)n2cc(OC)c(-c3cc(Cl)ccc3C#N)cc2=O)cn1 (racemic)
